Data on four molecules can be found in PubChem BioAssay (NCI).

Among the test systems are HOP-18 NSCLC; DMS 114 small cell lung; SNB-78 CNS; KM20L2 colon; LXFL 529 NSCLC.
Holding throughout (assay): NCI-60 cell line screen, 48 h

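Briefly, cells in 96-well plates were exposed to five compound concentrations for 48 h, and endpoints were estimated by linear interpolation. Here, GI50 denotes the concentration required for 50% inhibition of growth. TGI: total growth inhibition.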

Consider `CC(C)(C)C(=O)[CH-]C(=O)C(C)(C)C.CC(C)(C)C(=O)[CH-]C(=O)C(C)(C)C.CN(C)c1ccc([O-])cc1.CN(C)c1ccc([O-])cc1.[Ti+4]`, for which the GI50 is over 100 µM with HOP-18 NSCLC; over 100 µM in the assay with DMS 114 small cell lung; over 100 µM in the assay with SNB-78 CNS; over 100 µM in the assay with KM20L2 colon; 57.9 µM in the assay on LXFL 529 NSCLC. Also, the TGI with HOP-18 NSCLC, in the assay with DMS 114 small cell lung, in the assay on SNB-78 CNS, in the assay with KM20L2 colon and with LXFL 529 NSCLC was over 100 µM each time.

Take `O=C(/C=C/c1ccccc1)c1ccc(NCc2nc3ccccc3[nH]2)cc1`: the TGI in the assay on HOP-18 NSCLC was 17.6 µM; in the assay on DMS 114 small cell lung, 12.4 µM; with SNB-78 CNS it was 20.7 µM; with KM20L2 colon, 9.06 µM; with LXFL 529 NSCLC, 10.8 µM.

Regarding `CC(=O)N1CCC2(c3ccccc3N(C(C)=O)C2c2ccc(O)cc2)C1C(=O)O` (stereo not given), the TGI with HOP-18 NSCLC, with DMS 114 small cell lung, in the assay with SNB-78 CNS, with KM20L2 colon and with LXFL 529 NSCLC was over 100 µM in each case.

In the case of `O=[N+]([O-])c1ccc(-c2ccc(-c3csc(Nc4ccccc4)n3)o2)cc1`, the TGI is 29.4 µM in the assay on HOP-18 NSCLC; 63.5 µM in the assay with DMS 114 small cell lung; 38.4 µM in the assay with SNB-78 CNS; 44.9 µM with KM20L2 colon; 32.9 µM in the assay on LXFL 529 NSCLC.
